Test results reported in patent US7722876B2 (priority 2002, dated 2010).
Where a SMILES comes first, the peptide text is derived from it.

System: LLC-MK2 rhesus monkey kidney cells
Details: not given

Q: `CSCC[C@H](NC(=O)[C@@H](NC(=O)[C@@H](NC(=O)[C@H](CCCCN)NC(=O)[C@H](C)N)C(C)C)[C@@H](C)O)C(=O)N[C@H](C(=O)N[C@@H](CS)C(=O)N[C@@H](CO)C(=O)N[C@@H](C)C(=O)N[C@@H](CO)C(N)=O)[C@@H](C)O` [KM] (H-AKVTMTCSAS-NH2) was tested. Which “toxic effects on cell viability” value did it give?
A: Its value is “no toxic effects”.

System: fluconazole-resistant (AIDS 68) C.albicans
Assay type: in vivo, Candida albicans
Details: day 0; rats; 100 μg fluconazole at 1, 24, 48 h

Q: With `OC(Cn1cncn1)(Cn1cncn1)c1ccc(F)cc1F` [fluconazole] as the molecule, how does the “C. albicans vaginal CFU (×10^3) (±SD)” value read?
A: The value was >100 ×10^3.

Same assay, conditions: day 7; rats; 100 μg fluconazole at 1, 24, 48 h

Q: Which “C. albicans vaginal CFU (×10^3) (±SD)” value does the source give for `OC(Cn1cncn1)(Cn1cncn1)c1ccc(F)cc1F` [fluconazole] here?
A: Its value is 64 ± 6 ×10^3.

Same assay, conditions: day 14; rats; 100 μg fluconazole at 1, 24, 48 h

Q: For `OC(Cn1cncn1)(Cn1cncn1)c1ccc(F)cc1F` [fluconazole], which “C. albicans vaginal CFU (×10^3) (±SD)” value is on record?
A: Its value is 48 ± 3 ×10^3.

Same assay, conditions: day 28; rats; 100 μg fluconazole at 1, 24, 48 h

Q: How did the “C. albicans vaginal CFU (×10^3) (±SD)” value turn out when `OC(Cn1cncn1)(Cn1cncn1)c1ccc(F)cc1F` [fluconazole] was run?
A: The value was 12 ± 4 ×10^3.

System: C.albicans UP10 cells
Details: 6 h

Q: For `CSCC[C@H](NC(=O)[C@@H](NC(=O)[C@@H](NC(=O)[C@H](CCCCN)NC(=O)[C@H](C)N)C(C)C)[C@@H](C)O)C(N)=O` [SEQ ID 18] (H-AKVTM-NH2; N-terminus and C-terminus assumed), which IC50 is on record?
A: Its IC50 is 25000 nM.

Q: `CC(C)[C@H](NC(=O)CNC(=O)[C@H](Cc1ccc(O)cc1)NC(=O)CN)C(=O)N[C@@H](CC(N)=O)C(N)=O` [Heavy chain CDR-1] (H-GYGVN-NH2; N-terminus and C-terminus assumed) was tested. Which IC50 did it give?
A: Its IC50 is 267 nM.

Q: With `CC(C)[C@H](NC(=O)[C@H](CCCCN)NC(=O)[C@H](C)N)C(=O)N[C@H](C(N)=O)[C@@H](C)O` [SEQ ID 19] (H-AKVT-NH2; N-terminus and C-terminus assumed) as the molecule, how does the IC50 read?
A: Its IC50 is 710000 nM.

Q: `CC[C@H](C)[C@H](NC(=O)[C@@H](N)CCSC)C(=O)N[C@@H](Cc1c[nH]c2ccccc12)C(=O)NCC(=O)N[C@@H](CC(=O)O)C(=O)NCC(=O)N[C@@H](CO)C(=O)N[C@H](C(=O)N[C@@H](CC(=O)O)C(=O)N[C@@H](Cc1ccc(O)cc1)C(=O)N[C@@H](CC(N)=O)C(=O)N[C@@H](CO)C(=O)N[C@@H](C)C(=O)N[C@@H](CC(C)C)C(N)=O)[C@@H](C)O` [Heavy chain CDR-2] (H-MIWGDGSTDYNSAL-NH2; N-terminus and C-terminus assumed) was tested. Which IC50 did it give?
A: The IC50 was 117 nM.

Q: `CSCC[C@H](NC(=O)[C@@H](NC(=O)[C@@H](NC(=O)[C@H](CCCCN)NC(=O)[C@H](C)N)C(C)C)[C@@H](C)O)C(=O)N[C@H](C(=O)N[C@@H](CS)C(N)=O)[C@@H](C)O` [SEQ ID 16] (H-AKVTMTC-NH2; N-terminus and C-terminus assumed) was tested. Which IC50 did it give?
A: The IC50 was 600 nM.

Q: `CSCC[C@H](NC(=O)[C@@H](NC(=O)[C@@H](NC(=O)[C@H](CCCCN)NC(=O)[C@H](C)N)C(C)C)[C@@H](C)O)C(=O)N[C@H](C(=O)N[C@@H](CS)C(=O)N[C@@H](CO)C(N)=O)[C@@H](C)O` [SEQ ID 15] (H-AKVTMTCS-NH2; N-terminus and C-terminus assumed) was tested. Which IC50 did it give?
A: The IC50 was 23000 nM.

Q: Which IC50 does the source give for `CSCC[C@H](NC(=O)[C@@H](NC(=O)[C@@H](NC(=O)[C@H](CCCCN)NC(=O)[C@H](C)N)C(C)C)[C@@H](C)O)C(=O)N[C@H](C(=O)N[C@@H](CS)C(=O)N[C@@H](CO)C(=O)N[C@@H](C)C(N)=O)[C@@H](C)O` [SEQ ID 14] (H-AKVTMTCSA-NH2; N-terminus and C-terminus assumed) here?
A: Its IC50 is 50000 nM.

Q: How did the IC50 turn out when `CSCC[C@H](NC(=O)[C@H](Cc1ccc(O)cc1)NC(=O)[C@H](CO)NC(=O)[C@@H](NC(=O)[C@H](CO)NC(=O)[C@H](CO)NC(=O)[C@H](CO)NC(=O)[C@H](C)NC(=O)[C@@H](N)CO)C(C)C)C(=O)N[C@@H](Cc1ccc(O)cc1)C(N)=O` [Light chain CDR-1] (H-SASSSVSYMY-NH2; N-terminus and C-terminus assumed) was run?
A: The IC50 was 692 nM.

Q: How did the IC50 turn out when `NC(=O)CC[C@H](NC(=O)[C@@H](N)CCC(N)=O)C(=O)N[C@@H](Cc1c[nH]c2ccccc12)C(=O)N[C@@H](CO)C(=O)N[C@@H](CO)C(=O)N[C@@H](CC(N)=O)C(=O)N1CCC[C@H]1C(=O)N[C@@H](Cc1ccc(O)cc1)C(N)=O` [Light chain CDR-3] (H-QQWSSNPY-NH2; N-terminus and C-terminus assumed) was run?
A: The IC50 was 200 nM.

Q: `CSCC[C@H](NC(=O)[C@@H](NC(=O)[C@@H](NC(=O)[C@H](CCCCN)NC(=O)[C@H](C)N)C(C)C)[C@@H](C)O)C(=O)N[C@H](C(N)=O)[C@@H](C)O` [SEQ ID 17] (H-AKVTMT-NH2; N-terminus and C-terminus assumed) was tested. Which IC50 did it give?
A: Its IC50 is 730000 nM.

Q: How did the IC50 turn out when `CSCC[C@H](NC(=O)[C@H](C)NC(=O)[C@H](Cc1ccc(O)cc1)NC(=O)[C@@H](N)CC(C)C)C(N)=O` [Heavy chain CDR-3] (H-LYAM-NH2; N-terminus and C-terminus assumed) was run?
A: Its IC50 is 109 nM.

Q: For `CC(C)C[C@H](NC(=O)[C@H](CC(N)=O)NC(=O)[C@H](CO)NC(=O)[C@@H](NC(=O)[C@@H](N)CC(C)C)[C@@H](C)O)C(=O)N[C@@H](C)C(=O)N[C@@H](CO)C(N)=O` [Light chain CDR-2] (H-LTSNLAS-NH2; N-terminus and C-terminus assumed), which IC50 is on record?
A: Its IC50 is 234 nM.

Q: How did the IC50 turn out when `CC(C)[C@H](NC(=O)[C@H](CCCCN)NC(=O)[C@H](C)N)C(N)=O` [SEQ ID 20] (H-Ala-Lys-Val-NH2; N-terminus and C-terminus assumed) was run?
A: The IC50 was 10000 nM.
